# Experimental data: patent publication US20240238417A1, “METHODS OF PRODUCING TUMOR VACCINES AND USES THEREOF” (priority 2021, published 2024)
# Assays:
# LLC1 cells = test: XTT viability of LLC1 cells after gas exposure in chamber; assay type: cell-based; details: 10,000 ppm-25,000 ppm gNO for 3-15 minutes
# Description: (§1) In vitro systems: One system involves a direct exposure of cancer cells to gNO in 96-well plate. Gaseous NO at 150 ppm-50,000 ppm was delivered at 0.3 LPM for 10 seconds—3 minutes. In another system, cancer cells were exposed to gNO in a box made of acrylic glass. Gaseous NO at 10,000-50,000 ppm was delivered at 0.9 LPM for 10 seconds—15 minutes.
# (§2) The exposure of the cancer cells to gNO was done after removing the cell culture medium.
# (§3) Immediately after gas exposure, cell culture medium was added, and the cells were incubated at a 37° C. and 5% CO2 incubator over-night. To test cell viability, XTT assay and Annexin V-Propidium Iodide assays were performed, according to known protocols.
# The effect of continuous gaseous nitric oxide (gNO) at 10,000 ppm, 15,000 ppm, 20,000 ppm, or 25,000 ppm, compared to air (control), on the survival of LLC1 cancer cell line was tested. LLC1 cells were prepared in DMEM medium and suspended in 96-well plates. The plates were placed inside an approx. 2 liter exposure chamber. The plates were exposed to the gas by filling the chamber with gNO for 10 seconds, or 1, 3, 9 or 15 minutes. After exposure, the plates were placed in a 5% CO2, 37° C. incubator for an overnight incubation and the viability of the cells was tested by XTT assay.
# 4T1 cells [1] = test: Third inoculation with 4T1 breast cancer cells in a gNO-treated CT26 immunized mouse; assay type: in vivo; details: mouse treated with 25,000 ppm NO twice 15 minutes; third inoculation 30 days post the second
# Description: Balb/c mouse was inoculated with 500,000 CT26 cells to the right flank. CT26 tumor was treated with 25,000 ppm NO for 15 minutes at a flow rate of 0.25 LPM. Seven days post gas treatment, this mouse was treated once again using the same protocol. Twelve days post the first NO treatment, this mouse was re-inoculated with 500,000 CT26 cells to the left flank. A third inoculation of cancer cells was performed 30 days post the second cell inoculation, using mouse breast cancer cells, was performed as well and the growth of a third inoculation of breast cancer cells, 4T1 cells. Forty-four days post challenge assay start (second inoculation), this mouse was sacrificed, and his spleen was harvested and preserved in RPMI-based media at 4° c. until processing of it. The spleen was processed into a sterile 35 mm culture dish containing 5 ml of RPMI-based media. Any extra connective tissues or fat was trimmed from the spleen. The flat end of a plunger was used to mince the spleen by crushing the spleen to release the splenocytes. A 70 μm strainer was primed by passing 1 ml of PBS through it and placed on a sterile 50 mL conical tube. The pellet was collected and transferred through the strainer via a 5 mL serological pipette. The strainer was washed with 3 mL of RPMI-based media. Tube will be centrifuged at 300×g for 10 minutes. […]
# 4T1 challenge tumor = test: Challenge assay in 4T1 tumor-bearing mice; assay type: in vivo; details: 50,000 ppm gNO intra-tumorally for 10 minutes
# Description: Challenge tumor inoculation: Up to 21 days after gas treatment was applied to the primary tumor, the appropriate cancer cell suspensions were prepared as described herein and inoculation of cells was repeated on the contralateral flank of the mice. Administration was performed as soon as possible following cell suspension preparation and after manual shaking prior to withdrawal of the cell suspension.
# The percentage of challenge tumor take was monitored 2-3 times a week by taking a look at the inoculated site and touching this area to look for small tumors that are not yet visible. Naïve mice inoculated with tumor cells for the first time served as an internal control.
# In another challenge assay, 4T1 tumor-bearing mice were treated with 50,000 ppm gNO administered intra-tumorally by a 23G hypodermic needle for 10 minutes, and the effect of a local treatment with gNO on the primary tumor as compared to nitrogen was tested, as depicted in FIG. 16A. Fourteen days post gNO treatment, mice were re-inoculated with 10×10^5 4T1 cells subcutaneously (s.c.) (challenge assay). The percentage of tumor take was monitored by caliper measurements 2-3 times a week for 10 days. Naïve mice, inoculated with 4T1 for the first time, served as the control group. […]
# 4T1 cells [2] = test: XTT viability of 4T1 cells after direct gas exposure in 96-well plate; assay type: cell-based, mouse
# From the text: Tumor celllines: The mouse colon carcinoma cell line, CT26WT, was cloned from CT26, an N-nitroso-N-methylurethane-induced, undifferentiated colon carcinoma cell line. The mouse mammary tumor cell line, 4T1, is a 6-thioguanine resistant cell line. When injected into BALB/c mice, 4T1 spontaneously produces highly metastatic tumors that can metastasize to the lung, liver, lymph nodes and brain while the primary tumor is growing in situ. […] Panc 02.03 is a pancreatic adenocarcinoma epithelial cell line derived in 1995 from a primary tumor removed from the head-of-the-pancreas of […] with pancreatic adenocarcinoma. CT26, 4T1 and Panc 02.03 cell lines were grown in RPMI based media (ATCC 30-2001) supplemented with fetal bovine serum and pen-strep (both from Biological Industries). The LLC1/LU2 cell line was grown in DMEM based media (ATCC 30-2002) supplemented with fetal bovine serum and pen-strep (Biological industries). The B16.F10 cell lines was grown in DMEM based media (ATCC 30-2002) supplemented with fetal bovine serum and pen-strep (Biologicalindustries).
# as §1, §2, §3
# The effect of continuous gaseous nitric oxide (gNO) at 150 ppm, 4,000 ppm, 10,000 ppm, or 50,000 ppm, compared to air (control), on the survival of 4T1 cancer cell line was tested. 4T1 cells were prepared in RPMI medium and suspended in six 96-well plates. […]
smiles,measurement,setting,value
"[N]=O [gNO, nitric oxide]",viability of LLC1 cells,LLC1 cells,less than 5%
same,growth of a third inoculation of breast cancer cells (4T1),4T1 cells [1],inhibited
same,development of a secondary (challenge) 4T1 tumor,4T1 challenge tumor; 5 days post challenge tumor inoculation,have not developed a secondary tumor
same,challenge tumor take compared to non-treated and nitrogen-treated mice,4T1 challenge tumor; 10 days post re-inoculation,a delay in the challenge tumor take was achieved
same,4T1 cells remain viable,"4T1 cells [2]; 4,000-10,000 ppm gNO for 1 minute",About 60%
same,viability of 4T1 cells,"4T1 cells [2]; 10,000 or 50,000 ppm gNO for 180 seconds",1-3%
same,4T1 cells remained viable,"4T1 cells [2]; 10,000 ppm or 50,000 ppm gNO for 10 seconds",less than 80%
